In brackets after ≈: the same amount, converted by molar mass. A value given as a limit tells only on which side of the number the result lay.

Here are results for 16 molecules from ChEMBL document CHEMBL1926672, “New 5-benzylidenethiazolidin-4-one inhibitors of bacterial MurD ligase: design, synthesis, crystal structures, and biological evaluation” (Eur J Med Chem, 2011).

Tested on in the first assay: not listed separately
The assay can be described thus: Inhibition of Escherichia coli MurD ligase assessed as residual activity after 15 mins using UDP-MurNAc-L-Ala substrate by malachite green colorimetric method.
As a reminder, the IC50 is the midpoint of a concentration-inhibition curve. For `O=C(O)CC[C@@H](NC(=O)c1cccc(COc2ccc(/C=C3\SC(=S)NC3=O)cc2)c1)C(=O)O`, the IC50 turned out to be 76 µM.
Regarding `O=C(O)CC[C@@H](NS(=O)(=O)c1ccc(COc2ccc(/C=C3\SC(=S)NC3=O)cc2OCC(=O)O)cc1)C(=O)O`, the IC50 was determined as 472 µM.
On the same count and under the same terms, under `O=C(O)CC[C@@H](NC(=O)c1cccc(COc2ccc(/C=C3\SC(=O)NC3=O)cc2)c1)C(=O)O` stands 128 µM; under `O=C(O)CC[C@@H](NS(=O)(=O)c1ccc(COc2ccc(/C=C3\SC(=O)NC3=O)cc2OCC(=O)O)cc1)C(=O)O`, 814 µM.

The subject of the next assay is Escherichia coli. Kind of assay: Inhibition of Escherichia coli MurD ligase assessed as residual activity at 250 uM after 15 mins using UDP-MurNAc-L-Ala substrate by malachite green colorimetric method.
Take `O=C(O)CC[C@@H](NS(=O)(=O)c1ccc(COc2cccc(/C=C3\SC(=O)NC3=O)c2)cc1)C(=O)O`: the Activity was found to be 71%.

A further assay concerns Escherichia coli. The assay can be described thus: Inhibition of Escherichia coli MurD ligase assessed as residual activity at 500 uM after 15 mins using UDP-MurNAc-L-Ala substrate by malachite green colorimetric method.
As to `O=C(O)CC[C@@H](NC(=O)c1ccc(COc2ccc(/C=C3\SC(=O)NC3=O)cc2OCC(=O)O)cc1)C(=O)O`, the Activity was determined as 86%.
With `O=C(O)CC[C@@H](NC(=O)c1ccc(COc2cccc(/C=C3\SC(=O)NC3=O)c2)cc1)C(=O)O`, the Activity came out at 79%.
Consider `O=C(O)CC[C@@H](NC(=O)c1cccc(COc2ccc(Cn3ccc(=O)[nH]c3=O)cc2)c1)C(=O)O`, for which the Activity came to 86%.
In the case of `O=C(O)CC[C@@H](NC(=O)c1ccc(COc2ccc(Cn3ccc(=O)[nH]c3=O)cc2)cc1)C(=O)O`, the Activity is 85%.
The same measure, in the same setting: under `O=C(O)CC[C@@H](NC(=O)c1cccc(COc2cccc(/C=C3\SC(=O)NC3=O)c2)c1)C(=O)O` stands 65%.

Tested on in another assay: not listed separately
Kind of assay: Inhibition of Escherichia coli MurD ligase assessed as addition of D-[14C]glu to UDP-N-acetyl-muramoyl-L-alanine after 30 mins by radioactivity assay.
With `O=C(O)CC[C@@H](NS(=O)(=O)c1ccc(COc2cccc(/C=C3\SC(=S)NC3=O)c2)cc1)C(=O)O`, the IC50 was 45 µM.
As for `O=C(O)CC[C@@H](NC(=O)c1ccc(COc2ccc(/C=C3\SC(=S)NC3=O)cc2OCC(=O)O)cc1)C(=O)O`, the IC50 worked out at 34 µM.
Still for that read-out and setting: under `O=C(O)CC[C@@H](NC(=O)c1ccc(COc2cccc(/C=C3\SC(=S)NC3=O)c2)cc1)C(=O)O` stands 28 µM.
`O=C(O)CC[C@@H](NC(=O)c1cccc(COc2cccc(/C=C3\SC(=S)NC3=O)c2)c1)C(=O)O`: the IC50 worked out at 47 µM.
For the molecule `O=C(O)CC[C@@H](NS(=O)(=O)c1ccc(COc2ccc(/C=C3\SC(=S)NC3=O)cc2)cc1)C(=O)O`, the IC50 came to 120 µM.
Consider `O=C(O)CC[C@@H](NC(=O)c1cccc(CNc2ccc(/C=C3\SC(=S)NC3=O)cc2)c1)C(=O)O`, for which the IC50 worked out at 45 µM.

The test system of a further assay is Staphylococcus aureus. Kind of assay: Antibacterial activity against Staphylococcus aureus ATCC 29213 after 18 to 24 hrs by macrodilution technique. It is filed as functional.
As a reminder, the MBC is the lowest tested concentration that kills the bacteria rather than only halting them. For orientation: MIC means the smallest concentration in the dilution series that meets the test's criterion for growth inhibition. As to `O=C(O)CC[C@@H](NS(=O)(=O)c1ccc(COc2cccc(/C=C3\SC(=S)NC3=O)c2)cc1)C(=O)O`, the MBC was over 128 µg/mL and the MIC was over 128 µg/mL.
As for `O=C(O)CC[C@@H](NC(=O)c1ccc(COc2ccc(/C=C3\SC(=S)NC3=O)cc2OCC(=O)O)cc1)C(=O)O`, the MBC is over 128 µg/mL and inhibition of growth (MIC) required 128 µg/mL (≈ 223 µM).
`O=C(O)CC[C@@H](NC(=O)c1ccc(COc2cccc(/C=C3\SC(=S)NC3=O)c2)cc1)C(=O)O`: the MBC is over 128 µg/mL and the MIC is over 128 µg/mL.

Another assay relates to Pseudomonas aeruginosa. Kind of assay: Antibacterial activity against Pseudomonas aeruginosa […] after 18 to 24 hrs by macrodilution technique. It is filed as functional.
As to `O=C(O)CC[C@@H](NS(=O)(=O)c1ccc(COc2cccc(/C=C3\SC(=S)NC3=O)c2)cc1)C(=O)O`, the MBC was over 128 µg/mL and the MIC is over 128 µg/mL.
In turn, `O=C(O)CC[C@@H](NC(=O)c1ccc(COc2ccc(/C=C3\SC(=S)NC3=O)cc2OCC(=O)O)cc1)C(=O)O` returned an MBC of over 128 µg/mL and an MIC of over 128 µg/mL.
`O=C(O)CC[C@@H](NC(=O)c1ccc(COc2cccc(/C=C3\SC(=S)NC3=O)c2)cc1)C(=O)O` came in with a minimal bactericidal concentration (MBC) of over 128 µg/mL and an MIC of over 128 µg/mL.

In another assay the test system is Enterococcus faecalis. Kind of assay: Antibacterial activity against Enterococcus faecalis ATCC 29212 after 18 to 24 hrs by macrodilution technique. It is filed as functional.
In turn, `O=C(O)CC[C@@H](NS(=O)(=O)c1ccc(COc2cccc(/C=C3\SC(=S)NC3=O)c2)cc1)C(=O)O` displayed an MBC of over 128 µg/mL and an MIC of over 128 µg/mL.
In turn, `O=C(O)CC[C@@H](NC(=O)c1ccc(COc2ccc(/C=C3\SC(=S)NC3=O)cc2OCC(=O)O)cc1)C(=O)O` returned a minimum bactericidal concentration (MBC) of over 128 µg/mL and an MIC of 128 µg/mL (≈ 223 µM).
Turning to `O=C(O)CC[C@@H](NC(=O)c1ccc(COc2cccc(/C=C3\SC(=S)NC3=O)c2)cc1)C(=O)O`, the MBC was over 128 µg/mL and the MIC was over 128 µg/mL.

For another assay, the system named is Escherichia coli. Kind of assay: Antibacterial activity against Escherichia coli ATCC 25922 after 18 to 24 hrs by macrodilution technique. The class given is functional.
`O=C(O)CC[C@@H](NS(=O)(=O)c1ccc(COc2cccc(/C=C3\SC(=S)NC3=O)c2)cc1)C(=O)O` displayed a minimal bactericidal concentration (MBC) of over 128 µg/mL and an MIC of over 128 µg/mL.
For `O=C(O)CC[C@@H](NC(=O)c1ccc(COc2ccc(/C=C3\SC(=S)NC3=O)cc2OCC(=O)O)cc1)C(=O)O`, the MBC was over 128 µg/mL and the MIC was over 128 µg/mL.
Molecule `O=C(O)CC[C@@H](NC(=O)c1ccc(COc2cccc(/C=C3\SC(=S)NC3=O)c2)cc1)C(=O)O` registered a minimum bactericidal concentration (MBC) of over 128 µg/mL and an MIC of over 128 µg/mL.
